How the values were obtained:
DGKα = target: T1, DGKα (Homo sapiens, UniProt P23743); experiment: In vitro DGKα inhibition assay (ADP-Glo); type: biochemical; conditions: His-tagged human recombinant enzyme, 0.1 nM DGKα, 50 μM ATP, 20 μM DLG, 90 minute incubation
T1 construct: His; purchased Signal Chem D21-10BH
Description: (§1) The DGKα and DGKζ biochemical reactions were performed using His-tagged human recombinant enzymes (Signal Chem, DGKα, #D21-10BH; DGKζ, #D30-10H)) and DLG (Dilauroyl-sn-glycerol) lipid substrate (Signal Chem, #D430-59). ADP-Glo assay was performed using ADP-Glo™ kinase Assay kit (Promega, #V9104). The reactions were carried out in assay buffer containing 40 mM Tris, pH 7.5, 0.1% CHAPS, 0.1% Prionex, 40 mM NaCl, 5 mM MgCl2, 1 mM CaCl2, and 1 mM DTT. DGKα reactions contained 0.1 nM DGKα, 50 μM ATP, and 20 μM DLG. And DGKζ reactions contained 0.4 nM DGKζ, 30 μM ATP, and 20 μM DLG.
(§2) For compound inhibition studies, 40 nL test compound in DMSO was added to wells of white polystyrene plates in 384-well (Greiner, #784075) or 1536-well format (Greiner, #782075). Compounds were added with top concentration of 2 mM with 11 point, 3-fold dilution series. Enzyme solution (contains 2×DGK enzyme concentration in 1× assay buffer) was added to the plate in 2 μL/well volume, followed by 2 μL/well of substrate solution (contains 2× concentration of ATP and DLG substrate in 1× assay buffer). Plates were then centrifuged for 1 min at 1200 RPM and sealed or lidded. For 4 μL reaction volume, test compounds were therefore diluted 100× to final top concentration of […]. After 90 minute incubation, reactions were quenched by addition of 2 μL/well Promega ADP-Glo Reagent, followed by centrifugation and lidding. After 60 min incubation, 2 μL/well Promega Kinase Detection Reagent was added, plates centrifuged, and incubated for 30 min. Plates were then read using Luminescence method on BMG PHERAstar FSX plate reader. Percent inhibition was calculated and IC50s were determined using 4-parameter fit in Genedata Screener. Labcyte Echo acoustic dispenser was used for compound addition, and Formulatrix Tempest liquid handler was used for all reagent dispenses. The compounds of the disclosure were tested in one or more of the assays described above, and the resulting data are shown in Table A.

DGKζ = target: T2, DGKζ (Homo sapiens, UniProt Q13574); experiment: In vitro DGKζ inhibition assay (ADP-Glo); type: biochemical; conditions: His-tagged human recombinant enzyme, 0.4 nM DGKζ, 30 μM ATP, 20 μM DLG, 90 minute incubation
T2 construct: His; purchased Signal Chem D30-10H
Description: as §1, §2

T1 sequence (P23743 whole entry): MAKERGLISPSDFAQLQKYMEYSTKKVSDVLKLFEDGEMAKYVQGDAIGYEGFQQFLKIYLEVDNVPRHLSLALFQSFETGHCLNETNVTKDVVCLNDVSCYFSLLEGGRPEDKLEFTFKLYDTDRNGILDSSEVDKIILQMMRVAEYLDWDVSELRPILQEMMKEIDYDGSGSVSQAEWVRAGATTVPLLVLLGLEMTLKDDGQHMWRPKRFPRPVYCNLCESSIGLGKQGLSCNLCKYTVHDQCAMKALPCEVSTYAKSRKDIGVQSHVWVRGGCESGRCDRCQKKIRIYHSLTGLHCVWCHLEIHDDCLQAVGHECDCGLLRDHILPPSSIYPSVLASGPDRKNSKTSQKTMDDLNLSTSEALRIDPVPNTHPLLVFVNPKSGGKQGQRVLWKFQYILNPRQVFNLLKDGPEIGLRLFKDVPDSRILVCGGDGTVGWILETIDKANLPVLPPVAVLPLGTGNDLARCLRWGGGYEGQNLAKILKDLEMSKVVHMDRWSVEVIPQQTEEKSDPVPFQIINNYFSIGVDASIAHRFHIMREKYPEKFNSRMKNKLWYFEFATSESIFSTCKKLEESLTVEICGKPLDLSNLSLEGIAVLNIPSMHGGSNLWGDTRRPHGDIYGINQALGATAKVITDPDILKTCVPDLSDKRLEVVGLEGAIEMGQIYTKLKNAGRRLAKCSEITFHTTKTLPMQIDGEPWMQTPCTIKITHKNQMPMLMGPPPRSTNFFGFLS
T2 sequence (Q13574 whole entry): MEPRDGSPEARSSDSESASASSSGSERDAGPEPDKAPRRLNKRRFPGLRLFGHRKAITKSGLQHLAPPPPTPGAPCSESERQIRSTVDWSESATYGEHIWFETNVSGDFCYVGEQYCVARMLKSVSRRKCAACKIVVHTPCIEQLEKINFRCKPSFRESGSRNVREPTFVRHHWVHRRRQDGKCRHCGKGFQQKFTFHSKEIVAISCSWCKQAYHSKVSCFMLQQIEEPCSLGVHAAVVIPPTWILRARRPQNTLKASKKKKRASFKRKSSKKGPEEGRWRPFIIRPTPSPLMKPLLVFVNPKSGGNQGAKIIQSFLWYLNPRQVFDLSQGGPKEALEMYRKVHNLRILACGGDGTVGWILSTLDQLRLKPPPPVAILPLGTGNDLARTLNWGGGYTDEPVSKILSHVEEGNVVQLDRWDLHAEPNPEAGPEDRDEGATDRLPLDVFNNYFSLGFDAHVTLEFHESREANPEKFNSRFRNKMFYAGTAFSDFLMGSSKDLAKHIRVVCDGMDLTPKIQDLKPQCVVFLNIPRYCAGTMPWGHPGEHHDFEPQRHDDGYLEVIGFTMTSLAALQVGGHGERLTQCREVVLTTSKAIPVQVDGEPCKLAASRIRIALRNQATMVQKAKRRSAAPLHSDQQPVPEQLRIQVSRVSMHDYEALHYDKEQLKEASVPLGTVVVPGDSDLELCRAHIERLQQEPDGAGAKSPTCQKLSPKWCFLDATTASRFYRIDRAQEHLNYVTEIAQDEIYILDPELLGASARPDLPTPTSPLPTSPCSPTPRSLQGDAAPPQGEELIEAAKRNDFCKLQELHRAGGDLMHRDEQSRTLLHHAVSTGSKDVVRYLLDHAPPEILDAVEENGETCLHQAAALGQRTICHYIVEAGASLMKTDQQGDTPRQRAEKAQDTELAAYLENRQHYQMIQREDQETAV

COc1cc(F)ccc1Oc1ccc(/C=C(\F)c2csc(-c3ccnnc3)n2)c(N2CCC[C@@H](CN)C2)c1Cl [Example 3, (S,Z)-(1-(2-Chloro-6-(2-fluoro-2-(2-(pyridazin-4-yl)thiazol-4-yl)vinyl)-3-(4-fluoro-2-methoxyphenoxy)phenyl)piperidin-3-yl)methanamine]
IC50 (DGKα): ≤ 20 nM
IC50 (DGKζ): ≤ 20 nM

F/C(=C\c1ccc(Oc2ccccc2)c(C(F)(F)F)c1N1CCCC2(CCN(CC3CC3)CC2)C1)c1csc(-c2ccnnc2)n1 [Example 18, (Z)-4-(2-(2-(9-(Cyclopropylmethyl)-2,9-diazaspiro[5.5]undecan-2-yl)-4-phenoxy-3-(trifluoromethyl)phenyl)-1-fluorovinyl)-2-(pyridazin-4-yl)thiazole]
IC50 (DGKα): 20 to 200 nM
IC50 (DGKζ): ≤ 20 nM

OCCN1CCC2(CCCN(c3c(/C=C(\F)c4csc(-c5ccnnc5)n4)ccc(Oc4ccccn4)c3C(F)(F)F)C2)CC1 [Example 13, (Z)-2-(2-(6-(2-Fluoro-2-(2-(pyridazin-4-yl)thiazol-4-yl)vinyl)-3-(pyridin-2-yloxy)-2-(trifluoromethyl)phenyl)-2,9-diazaspiro[5.5]undecan-9-yl)ethan-1-ol]
IC50 (DGKα): ≤ 20 nM
IC50 (DGKζ): ≤ 20 nM

F/C(=C\c1ccc(OC2CCC2)c(C(F)(F)F)c1N1CCOC2(CCNCC2)C1)c1csc(-c2ccnnc2)n1 [Example 7, (Z)-4-(3-Cyclobutoxy-6-(2-fluoro-2-(2-(pyridazin-4-yl)thiazol-4-yl)vinyl)-2-(trifluoromethyl)phenyl)-1-oxa-4,9-diazaspiro[5.5]undecane]
IC50 (DGKα): ≤ 20 nM
IC50 (DGKζ): 20 to 200 nM

F/C(=C\c1ccc(Oc2cccc(F)c2F)c(C(F)(F)F)c1N1CCCC2(CCNCC2)C1)c1csc(-c2cnsc2)n1 [Example 8, (Z)-4-(4-(2-(4-(2,3-Difluorophenoxy)-2-(2,9-diazaspiro[5.5]undecan-2-yl)-3-(trifluoromethyl)phenyl)-1-fluorovinyl)thiazol-2-yl)isothiazole]
IC50 (DGKα): ≤ 20 nM
IC50 (DGKζ): 20 to 200 nM

CCN1CCC2(CC1)CN(c1c(/C=C(\F)c3csc(-c4ccnnc4)n3)ccc(Oc3ccccc3)c1C(F)(F)F)CCO2 [Example 6, (Z)-9-Ethyl-4-(6-(2-fluoro-2-(2-(pyridazin-4-yl)thiazol-4-yl)vinyl)-3-phenoxy-2-(trifluoromethyl)phenyl)-1-oxa-4,9-diazaspiro[5.5]undecane]
IC50 (DGKα): 20 to 200 nM
IC50 (DGKζ): ≤ 20 nM

CC(C)(O)CN1CCC2(CCCN(c3c(/C=C(\F)c4csc(-c5ccnnc5)n4)ccc(Oc4ccccn4)c3C(F)(F)F)C2)CC1 [Example 12, (Z)-1-(2-(6-(2-Fluoro-2-(2-(pyridazin-4-yl)thiazol-4-yl)vinyl)-3-(pyridin-2-yloxy)-2-(trifluoromethyl)phenyl)-2,9-diazaspiro[5.5]undecan-9-yl)-2-methylpropan-2-ol]
IC50 (DGKα): ≤ 20 nM
IC50 (DGKζ): ≤ 20 nM

CCN1CC2(CCCN(c3c(/C=C(\F)c4ccn(-c5ccnnc5)n4)ccc(Oc4cccc(F)c4F)c3C(F)(F)F)C2)C1 [Example 19, (Z)-6-(3-(2,3-Difluorophenoxy)-6-(2-fluoro-2-(1-(pyridazin-4-yl)-1H-pyrazol-3-yl)vinyl)-2-(trifluoromethyl)phenyl)-2-ethyl-2,6-diazaspiro[3.5]nonane]
IC50 (DGKα): ≤ 20 nM
IC50 (DGKζ): ≤ 20 nM

OCCN1CCC2(CCCN(c3c(/C=C(\F)c4csc(-c5ccnnc5)n4)ccc(Oc4ccccc4)c3C(F)(F)F)C2)CC1 [Example 23, (Z)-2-(2-(6-(2-Fluoro-2-(2-(pyridazin-4-yl)thiazol-4-yl)vinyl)-3-phenoxy-2-(trifluoromethyl)phenyl)-2,9-diazaspiro[5.5]undecan-9-yl)ethan-1-ol]
IC50 (DGKα): 20 to 200 nM
IC50 (DGKζ): ≤ 20 nM

F/C(=C\c1ccc(Oc2ccccc2)c(C(F)(F)F)c1N1CCOC2(CCNCC2)C1)c1csc(-c2ccnnc2)n1 [Example 5, (Z)-4-(6-(2-Fluoro-2-(2-(pyridazin-4-yl)thiazol-4-yl)vinyl)-3-phenoxy-2-(trifluoromethyl)phenyl)-1-oxa-4,9-diazaspiro[5.5]undecane]
IC50 (DGKα): ≤ 20 nM
IC50 (DGKζ): ≤ 20 nM

NC[C@@H]1CCCN(c2c(/C=C(\F)c3csc(-c4ccnnc4)n3)ccc(Oc3ccccc3F)c2C(F)(F)F)C1 [Example 1, (S,Z)-(1-(6-(2-Fluoro-2-(2-(pyridazin-4-yl)thiazol-4-yl)vinyl)-3-(2-fluorophenoxy)-2-(trifluoromethyl)phenyl)piperidin-3-yl)methanamine]
IC50 (DGKα): ≤ 20 nM
IC50 (DGKζ): ≤ 20 nM

F/C(=C\c1ccc(Oc2cccc(F)c2F)c(C(F)(F)F)c1N1CCCC2(CCN(CC3CC3)CC2)C1)c1ccn(-c2ccnnc2)n1 [Example 10, (Z)-9-(Cyclopropylmethyl)-2-(3-(2,3-difluorophenoxy)-6-(2-fluoro-2-(1-(pyridazin-4-yl)-1H-pyrazol-3-yl)vinyl)-2-(trifluoromethyl)phenyl)-2,9-diazaspiro[5.5]undecane]
IC50 (DGKα): 20 to 200 nM
IC50 (DGKζ): ≤ 20 nM

CN(c1c(/C=C(\F)c2csc(-c3ccnnc3)n2)ccc(Oc2ccccc2F)c1C(F)(F)F)[C@H]1CCNC[C@H]1F [Example 4, (3R,4S)-3-Fluoro-N-(6-((Z)-2-fluoro-2-(2-(pyridazin-4-yl)thiazol-4-yl)vinyl)-3-(2-fluorophenoxy)-2-(trifluoromethyl)phenyl)-N-methylpiperidin-4-amine]
IC50 (DGKα): 20 to 200 nM
IC50 (DGKζ): 20 to 200 nM

CCN1CCC2(CCCN(c3c(/C=C(\F)c4ccn(-c5ccnnc5)n4)ccc(Oc4ccccc4)c3C(F)(F)F)C2)CC1 [Example 24, (Z)-9-Ethyl-2-(6-(2-fluoro-2-(1-(pyridazin-4-yl)-1H-pyrazol-3-yl)vinyl)-3-phenoxy-2-(trifluoromethyl)phenyl)-2,9-diazaspiro[5.5]undecane]
IC50 (DGKα): 20 to 200 nM
IC50 (DGKζ): ≤ 20 nM

NC[C@@H]1CCCN(c2c(/C=C(\F)c3ccn(-c4ccnnc4)n3)ccc(Oc3ccccc3F)c2C(F)(F)F)C1 [Example 2, (S,Z)-(1-(6-(2-Fluoro-2-(1-(pyridazin-4-yl)-1H-pyrazol-3-yl)vinyl)-3-(2-fluorophenoxy)-2-(trifluoromethyl)phenyl)piperidin-3-yl)methanamine]
IC50 (DGKα): ≤ 20 nM
IC50 (DGKζ): ≤ 20 nM

F/C(=C\c1ccc(OC2CCCCC2)c(C(F)(F)F)c1N1CCCC2(CCN(CC3CC3)CC2)C1)c1ccn(-c2ccnnc2)n1 [Example 15, (Z)-2-(3-(Cyclohexyloxy)-6-(2-fluoro-2-(1-(pyridazin-4-yl)-1H-pyrazol-3-yl)vinyl)-2-(trifluoromethyl)phenyl)-9-(cyclopropylmethyl)-2,9-diazaspiro[5.5]undecane]
IC50 (DGKα): 20 to 200 nM
IC50 (DGKζ): ≤ 20 nM

CCN1CCC2(CCCN(c3c(/C=C(\F)c4csc(-c5ccnnc5)n4)ccc(Oc4ccccc4)c3C(F)(F)F)C2)CC1 [Example 17, (Z)-4-(2-(2-(9-Ethyl-2,9-diazaspiro[5.5]undecan-2-yl)-4-phenoxy-3-(trifluoromethyl)phenyl)-1-fluorovinyl)-2-(pyridazin-4-yl)thiazole]
IC50 (DGKα): ≤ 20 nM
IC50 (DGKζ): ≤ 20 nM

F/C(=C\c1ccc(Oc2ccccc2)c(C(F)(F)F)c1N1CCCC2(CCN(CC3CC3)CC2)C1)c1ccn(-c2ccnnc2)n1 [Example 21, (Z)-9-(Cyclopropylmethyl)-2-(6-(2-fluoro-2-(1-(pyridazin-4-yl)-1H-pyrazol-3-yl)vinyl)-3-phenoxy-2-(trifluoromethyl)phenyl)-2,9-diazaspiro[5.5]undecane]
IC50 (DGKα): 20 to 200 nM
IC50 (DGKζ): ≤ 20 nM

F/C(=C\c1ccc(Oc2ccccn2)c(C(F)(F)F)c1N1CCCC2(CCN(CC3CC3)CC2)C1)c1csc(-c2ccnnc2)n1 [Example 14, (Z)-4-(2-(2-(9-(Cyclopropylmethyl)-2,9-diazaspiro[5.5]undecan-2-yl)-4-(pyridin-2-yloxy)-3-(trifluoromethyl)phenyl)-1-fluorovinyl)-2-(pyridazin-4-yl)thiazole]
IC50 (DGKα): ≤ 20 nM
IC50 (DGKζ): ≤ 20 nM

F/C(=C\c1ccc(Oc2ccccc2)c(C(F)(F)F)c1N1CCCC2(CCNCC2)C1)c1csc(N2CCC(F)(F)C2)n1 [Example 9, (Z)-2-(3,3-Difluoropyrrolidin-1-yl)-4-(1-fluoro-2-(4-phenoxy-2-(2,9-diazaspiro[5.5]undecan-2-yl)-3-(trifluoromethyl)phenyl)vinyl)thiazole]
IC50 (DGKα): 20 to 200 nM
IC50 (DGKζ): 200 to 2000 nM

F/C(=C\c1ccc(Oc2cccc(F)c2F)c(C(F)(F)F)c1N1CCCC2(CCN(CC3CC3)CC2)C1)c1csc(-c2ccnnc2)n1 [Example 11, (Z)-4-(2-(2-(9-(Cyclopropylmethyl)-2,9-diazaspiro[5.5]undecan-2-yl)-4-(2,3-difluorophenoxy)-3-(trifluoromethyl)phenyl)-1-fluorovinyl)-2-(pyridazin-4-yl)thiazole]
IC50 (DGKα): ≤ 20 nM
IC50 (DGKζ): ≤ 20 nM

Reference: patent US20240270739A1, “Heteroaryl Fluoroalkenes As DGK Inhibitors” (Incyte Corporation, priority 2023, published 2024)
